Test results reported in patent US12268685B2, “Dosing regimen for injectable cetirizine” (JDP THERAPEUTICS LLC, priority 2019, dated 2025).
Entries after “also recorded” stand apart in the source; their conditions may differ. Structures can show the parent of a compound that is named as a salt. Where two headings read alike, the source gives them in different places.

Experiments:
Sprague-Dawley rats [1] = test system: Sprague-Dawley rats
Protocol: The study was conducted in four phases (Phase I, II/IIB, III and IV/IVB) via various methods of intravenous injection to rats. The intravenous route is the route of administration for the final finished product in human subjects. […] Phase III was conducted to evaluate repeat dosing using a Sponsor prepared human clinical formulation.
Phase I (Dose escalation): The test item dose formulation was administered in an escalating dose fashion by slow intravenous injection (over approximately 2 minutes) into the tail vein using a hypodermic needle attached to a syringe. A minimum 24-hour observation period was allowed between successive doses. The dose volume was 5 mL/kg for all animals. […] The protocol is described in Table 2.
Sprague-Dawley rats were used for all of the experiments.

Sprague-Dawley rats [2] = conditions: rat, in vivo
Sprague-Dawley rats [3] = conditions: Phase IV
[4] = test system: subjects with acute urticaria; conditions: for Developed other symptoms: No / Developed other symptoms: Yes / Needed additional medication: No / Needed additional medication: Yes / Needed medication prescribed at discharge: No / Needed medication prescribed at discharge: No medication prescribed / Needed medication prescribed at discharge: Yes / Recurrence of allergic symptoms: No / Recurrence of allergic symptoms: Yes / Returned to normal activity: No / Returned to normal activity: Yes: ITT; for Patient-rated pruritus severity score, 2 Hour Change from Baseline, mean (primary efficacy measure): LOCF; for Patient-rated pruritus severity score, 2 Hour Change from Baseline, mean (primary efficacy measure) / Time spent at the treatment center, Mean (SD): acetic acid, dihydrochloride
[5] = injection; cited from earlier work
[6] = test system: adult and pediatric patients; conditions: cited from earlier work
[7] = Sprague-Dawley, 30 mg/kg/day, 7 days
[8] = 24 hrs after discharge, count (percentage)
[9] = 48 hrs after discharge, count (percentage)
[10] = ITT Population, listed as Cetirizine Injection
[11] = ITT Population, before treatment
[12] = ITT Population, count (percentage)

Compound: O=C(O)COCCN1CCN(C(c2ccccc2)c2ccc(Cl)cc2)CC1 (racemic) [cetirizine dihydrochloride, (±)-[2-[4-[(4-chlorophenyl)phenylmethyl]-1-piperazinyl]ethoxy] acetic acid, dihydrochloride]
- Animals found dead (Sprague-Dawley rats [1]; Sprague-Dawley, rat, in vivo, 50 mg/kg): 2/4
- Mortality dose level as multiple of human clinical dose (Sprague-Dawley rats [1]; Sprague-Dawley, rat, in vivo, 14 days): 58 times of human clinical dose
- Animals found dead (Sprague-Dawley rats [1]; rat, in vivo, 100 mg/kg): ¾
- Dose levels associated with mortality (Sprague-Dawley rats [1]; single IV injection, tail vein): ≥ 50 mg/kg
- Animals with findings at the dosing site (tail), dark area (Sprague-Dawley rats [2]; [7]): 2/10
- Enlargement of bronchial lymph node (Sprague-Dawley rats [2]; [7]): 2/10
- Animals affected by macroscopic findings at the dosing site (tail) (Sprague-Dawley rats [2]; Sprague-Dawley, 2 days): 8/10
- Dark focus/area/mottling at the dosing site (Sprague-Dawley rats [2]; Sprague-Dawley, 2 days): 8/10
- Scab at the dosing site (Sprague-Dawley rats [2]; Sprague-Dawley, 2 days): 1/10
- Thickening at the dosing site (Sprague-Dawley rats [2]; Sprague-Dawley, 2 days): 6/10
- Body weight (Sprague-Dawley rats [2]): no test item related effects noted
- Other clinical signs (Sprague-Dawley rats [3]; 30 mg/kg/day, as of Day 1, acetic acid, dihydrochloride, 30 mg/kg/day): Increases in activity and changes in posture (hunched back); also recorded: Changes in posture and increased activity were noted
- Dark focus of the lungs (Sprague-Dawley rats [3]; necropsy): 2/4
- Macroscopic findings at the dosing site (Sprague-Dawley rats [3]; necropsy): no findings at the dosing site were observed
- Developed other symptoms: No [4, 8]: 108 (85.04)
- Developed other symptoms: Yes [4, 8]: 12 (9.45)
- Needed additional medication: No [4, 8]: 94 (74.02)
- Needed additional medication: Yes [4, 8]: 26 (20.47)
- Needed medication prescribed at discharge: No [4, 8]: 41 (32.28)
- Needed medication prescribed at discharge: No medication prescribed [4, 8]: 10 (7.87)
- Needed medication prescribed at discharge: Yes [4, 8]: 69 (54.33)
- Recurrence of allergic symptoms: No [4, 8]: 66 (51.97)
- Recurrence of allergic symptoms: Yes [4, 8]: 54 (42.52)
- Returned to normal activity: No [4, 8]: 17 (13.39)
- Returned to normal activity: Yes [4, 8]: 103 (81.10)
- Developed other symptoms: No [4, 9]: 111 (87.40)
- Developed other symptoms: Yes [4, 9]: 10 (7.87)
- Needed additional medication: No [4, 9]: 102 (80.31)
- Needed additional medication: Yes [4, 9]: 19 (14.96)
- Needed medication prescribed at discharge: No [4, 9]: 46 (36.22)
- Needed medication prescribed at discharge: No medication prescribed [4, 9]: 11 (8.66)
- Needed medication prescribed at discharge: Yes [4, 9]: 64 (50.39)
- Recurrence of allergic symptoms: No [4, 9]: 85 (66.93)
- Recurrence of allergic symptoms: Yes [4, 9]: 36 (28.35)
- Returned to normal activity: No [4, 9]: 9 (7.09)
- Returned to normal activity: Yes [4, 9]: 112 (88.19)
- Course of subject-rated sedation scores after treatment ([4]; ITT Population): returning to baseline sedation by 2 hrs
- Patient-rated pruritus severity score, 1 Hour Assessment, mean ([4]; ITT Population): 0.81
- Patient-rated pruritus severity score, 1 Hour Change from Baseline, mean ([4]; ITT Population): −1.39
- Patient-rated pruritus severity score, 2 Hour Assessment, mean ([4]; ITT Population): 0.60
- Patient-rated pruritus severity score, Discharge Assessment, mean ([4]; ITT Population): 0.58
- Patient-rated pruritus severity score, Discharge Change from Baseline, mean ([4]; ITT Population): −1.62
- Physician-rated urticaria/erythema score, 1 Hour Assessment, mean ([4]; ITT Population): 1.27
- Physician-rated urticaria/erythema score, 1 Hour Change from Baseline, mean ([4]; ITT Population): −0.54
- Physician-rated urticaria/erythema score, 2 Hour Assessment, mean ([4]; ITT Population): 1.19
- Physician-rated urticaria/erythema score, 2 Hour Change from Baseline, mean ([4]; ITT Population): −0.63
- Physician-rated urticaria/erythema score, Discharge Assessment, mean ([4]; ITT Population): 1.17
- Physician-rated urticaria/erythema score, Discharge Change from Baseline, mean ([4]; ITT Population): −0.65
- Subject-rated sedation score, 1 Hour Assessment, mean ([4]; ITT Population): 0.62
- Subject-rated sedation score, 1 Hour Change from Baseline, mean ([4]; ITT Population): 0.24
- Subject-rated sedation score, 2 Hour Assessment, mean ([4]; ITT Population): 0.46
- Subject-rated sedation score, 2 Hour Change from Baseline, mean ([4]; ITT Population): 0.08
- Subject-rated sedation score, Discharge Assessment, mean ([4]; ITT Population): 0.46
- Subject-rated sedation score, Discharge Change from Baseline, mean ([4]; ITT Population): 0.08
- Time spent at the treatment center, Median ([4]; ITT Population): 1.42 h
- Time spent at the treatment center shorter than with diphenhydramine injection ([4]; ITT Population analysis): 22 min
- Patient-rated pruritus severity score, 2 Hour Change from Baseline, mean (primary efficacy measure) ([4]; ITT Population): −1.61 (0.944)
- Patient-rated pruritus severity score, 2 Hour Change from Baseline, mean (primary efficacy measure) [4, 10]: −1.61
- Patient-rated pruritus severity score, Baseline Assessment, mean [4, 11]: 2.20
- Physician-rated urticaria/erythema score, Baseline Assessment, mean [4, 11]: 1.81
- Subject-rated sedation score, Baseline Assessment, mean [4, 11]: 0.39
- Subjects who returned to the treatment center: No [4, 12]: 120 (94.49)
- Subjects who returned to the treatment center: Yes [4, 12]: 7 (5.51)
- Time spent at the treatment center, Mean (SD) [4, 10]: 1.71 (0.868) Hours
- Time spent at the treatment center, Mean (SD) ([4]; ITT Population, listed as injectable cetirizine): 1.7 (0.9) Hours
- Effectively treated subjects, yes ([4]; Investigator's opinion, count (percentage)): 103 (81.10)
- Time spent at the treatment center shorter than with diphenhydramine injection ([4]; PP Population analysis): 27 min
- Proportion of patients returning to any emergency department or clinic ([4]; clinical trials, treatment group): 6%
- Subjects needed rescue drug, yes ([4]; count (percentage)): 19 (14.96)
- Least squares estimated treatment difference, 2 hr change in pruritus severity score ([4]; diphenhydramine-cetirizine, 95% CI=−0.281, 0.396): 0.06
- Effectiveness compared to diphenhydramine injection ([4]; non-inferiority margin −0.50, 2 hr pruritus change): non-inferior
- Pruritus treatment success, yes ([4]; score reduction of at least 1 unit at 2 hr, count (percentage)): 110 (86.61)
- Hemolysis [5]: free of hemolysis
- Most commonly reported adverse reactions in adult overdose cases ([6]; oral doses of 70 mg to 800 mg, patients 18 to 81 years): somnolence and fatigue
- Adverse reactions reported in pediatric overdose cases ([6]; oral doses of 90 mg to 300 mg, patients 18 months to 15 years): somnolence, difficulty walking, agitation/irritability, hard to swallow/articulate clearly, tachycardia, vomiting, mydriasis, and elevated creatinine phosphokinase
